These results are taken from US6511997B1, “Aminopyrazole derivatives” (Teikoku Hormone Mfg. Co., Ltd., priority 1998, dated 2003).

On to `Cn1nc(-c2ccc(F)cc2)c(-c2ccncc2)c1NC(=O)Cc1cc(C(F)(F)F)cc(C(F)(F)F)c1` [Example 45, 5-(3,5-Ditrifluoromethylphenylacetylamino)-3-(4-fluorophenyl)-1-methyl-4-(4-pyridyl)pyrazole], for which the melting point lay in the range of 228.3 to 230.6 °C.

`Cn1nc(-c2ccc(F)cc2)c(-c2ccncc2)c1NC(=O)Cc1c(F)cccc1F` [Example 46, 5-(2,6-Difluorophenylacetylamino)-3-(4-fluorophenyl)-1-methyl-4-(4-pyridyl)pyrazole] registered a melting point of 239.9 to 242.5 °C.

`Cn1nc(-c2ccc(F)cc2)c(-c2ccncc2)c1NC(=O)Cc1cc(F)cc(F)c1` [Example 48, 5-(3,5-Difluorophenylacetylamino)-3-(4-fluorophenyl)-1-methyl-4-(4-pyridyl)pyrazole] displayed a melting point of 208.5 to 210.2 °C.

In turn, `Cn1nc(-c2ccc(F)cc2)c(-c2ccncc2)c1NC(=O)Cc1cccc(F)c1F` [Example 49, 5-(2,3-Difluorophenylacetylamno)-3-(4-fluorophenyl)-1-methyl-4-(4-pyridyl)pyrazole] showed a melting point of 181.3 to 182.5 °C.

Consider `Cc1cc(C)cc(CC(=O)Nc2c(-c3ccncc3)c(-c3ccc(F)cc3)nn2C)c1` [Example 50, 5-(3,5-Dimethylphenylacetylamino)-3-(4-fluorophenyl)-1-methyl-4-(4-pyridyl)pyrazole], for which the melting point is 211.2 to 212.4 °C.

`Cc1ccc(C)c(CC(=O)Nc2c(-c3ccncc3)c(-c3ccc(F)cc3)nn2C)c1` [Example 51, 5-(2,5-Dimethylphenylacetylanino)-3-(4-fluorophenyl)-1-methyl-4-(4-pyridyl)pyrazole] gave a melting point of 179.9 to 185.1 °C.

Compound `COc1ccc(CC(=O)Nc2c(-c3ccncc3)c(-c3ccc(F)cc3)nn2C)c(OC)c1` [Example 52, 5-(2,4-Dimethoxyphenylacetylamino)-3-(4-fluorophenyl)-1-methyl-4-(4-pyridyl)pyrazole] yielded a melting point of 179.3 to 182.2 °C.

With `COc1cccc(CC(=O)Nc2c(-c3ccncc3)c(-c3ccc(F)cc3)nn2C)c1OC` [Example 53, 5-(2,3-Dimethoxyphenylacetylamino)-3-(4-fluorophenyl)-1-methyl-4-(4-pyridyl)pyrazole], the melting point fell in the range of 185.4 to 193.4 °C.

The compound `COc1cc(CC(=O)Nc2c(-c3ccncc3)c(-c3ccc(F)cc3)nn2C)cc(OC)c1OC` [Example 54, 3-(4-Fluorophenyl)-1-methyl-4-(4-pyridyl)-5-(3,4,5-trimethoxyphenylacetylamino)pyrazole] came in with a melting point of 178.1 to 180.4 °C.

`Cn1nc(-c2ccc(F)cc2)c(-c2ccncc2)c1NC(=O)Cc1ccccc1Cl` [Example 56, 5-(2-Chlorophenylacetylamino)-3-(4-fluorophenyl)-1-methyl-4-(4-pyridyl)pyrazole] registered a melting point of 215.9 to 217.8 °C.

In the case of `Cn1nc(-c2ccc(F)cc2)c(-c2ccncc2)c1NC(=O)Cc1ccccc1Br` [Example 57, 5-(2-Bromophenylacetylamino)-3-(4-fluorophenyl)-1-methyl-4-(4-pyridyl)pyrazole], the melting point lay within 223.8 to 227.6 °C.

As to `Cn1nc(-c2ccc(F)cc2)c(-c2ccncc2)c1NC(=O)Cc1cccc(Br)c1` [Example 58, 5-(3-Bromophenylacetylamino)-3-(4-fluorophenyl)-1-methyl-4-(4-pyridyl)pyrazole], the melting point was in the range of 78.5 to 80.2 °C.

`Cn1nc(-c2ccc(F)cc2)c(-c2ccncc2)c1NC(=O)Cc1ccc(Br)cc1` [Example 59, 5-(4-Bromophenylacetylamino)-3-(4-fluorophenyl)-1-methyl-4-(4-pyridyl)pyrazole] showed a melting point of 199.8 to 202.1 °C.

Turning to `Cn1nc(-c2ccc(F)cc2)c(-c2ccncc2)c1NC(=O)Cc1ccccc1F` [Example 60, 3-(4-Fluorophenyl)-5-(2-fluorophenylacetylamino)-1-methyl-4-(4-pyridyl)pyrazole], the melting point lay in the range of 196.8 to 198.1 °C.

In the case of `Cn1nc(-c2ccc(F)cc2)c(-c2ccncc2)c1NC(=O)Cc1cccc(F)c1` [Example 61, 3-(4-Fluorophenyl)-5-(3-fluorophenylacetylamino)-1-methyl-4-(4-pyridyl)pyrazole], the melting point was 196.9 to 199.1 °C.

`Cn1nc(-c2ccc(F)cc2)c(-c2ccncc2)c1NC(=O)Cc1ccc(F)cc1` [Example 62, 3-(4-Fluorophenyl)-5-(4-fluorophenylacetylamino)-1-methyl-4-(4-pyridyl)pyrazole] gave a melting point of 217.3 to 219.7 °C.

Compound `COc1cccc(CC(=O)Nc2c(-c3ccncc3)c(-c3ccc(F)cc3)nn2C)c1` [Example 63, 3-(4-Fluorophenyl)-5-(3-methoxyphenylacetylamino)-1-methyl-4-(4-pyridyl)pyrazole] yielded a melting point of 135 to 141.2 °C.

On to `COc1ccc(CC(=O)Nc2c(-c3ccncc3)c(-c3ccc(F)cc3)nn2C)cc1` [Example 64, 3-(4-Fluorophenyl)-5-(4-methoxyphenylacetylamino)-1-methyl-4-(4-pyridyl)pyrazole], for which the melting point is 172.3 to 176 °C.

`Cn1nc(-c2ccc(F)cc2)c(-c2ccncc2)c1NC(=O)Cc1ccccc1[N+](=O)[O-]` [Example 65, 3-(4-Fluorophenyl)-1-methyl-5-(2-nitrophenylacetylamino)-4-(4-pyridyl)pyrazole]: the melting point fell in the range of 240.9 to 242.4 °C.

Compound `Cc1ccccc1CC(=O)Nc1c(-c2ccncc2)c(-c2ccc(F)cc2)nn1C` [Example 67, 3-(4-Fluorophenyl)-1-methyl-5-(2-methylphenylacetylamino)-4-(4-pyridyl)pyrazole] displayed a melting point of 197.6 to 200.5 °C.

Consider `Cn1nc(-c2ccc(F)cc2)c(-c2ccncc2)c1NC(=O)Cc1ccccc1C(F)(F)F` [Example 68, 3-(4-Fluorophenyl)-1-methyl-4-(4-pyridyl)-5-(2-trifluoromethylphenylacetylamino)pyrazole], for which the melting point fell in the range of 242.7 to 244.5 °C.

Regarding `COc1ccccc1CC(=O)Nc1c(-c2ccncc2)c(-c2ccc(F)cc2)nn1C` [Example 69, 3-(4-Fluorophenyl)-5-(2-methoxyphenylacetylamino)-1-methyl-4-(4-pyridyl)pyrazole], the melting point fell in the range of 206.8 to 209.2 °C.

With `Cn1nc(-c2ccc(F)cc2)c(-c2ccncc2)c1NC(=O)Cc1ccc(OCc2ccccc2)cc1` [Example 70, 5-(4-Benzyloxyphenylacetylamino)-3-(4-fluorophenyl)-1-methyl-4-(4-pyridyl)pyrazole], the melting point lay in the range of 147.8 to 150.1 °C.

In turn, `CSc1ccc(CC(=O)Nc2c(-c3ccncc3)c(-c3ccc(F)cc3)nn2C)cc1` [Example 71, 3-(4-Fluorophenyl)-1-methyl-5-(4-methylthiophenylacetyl-amino)-4-(4-pyridyl)pyrazole] returned a melting point of 182.5 to 184.7 °C.

In turn, `Cn1nc(-c2ccc(F)cc2)c(-c2ccncc2)c1NC(=O)Cc1cccc(C(F)(F)F)c1` [Example 72, 3-(4-Fluorophenyl)-1-methyl-4-(4-pyridyl)-5-(3-trifluoromethylphenylacetylamino)pyrazole] came in with a melting point of 193.4 to 195.8 °C.

Turning to `CC(C(=O)Nc1c(-c2ccncc2)c(-c2ccc(F)cc2)nn1C)c1ccccc1` (centres unmarked) [Example 73, 3-(4-Fluorophenyl)-1-methyl-5-(2-phenylpropionylamino)-4-(4-pyridyl)pyrazole], the melting point lay in the range of 210 to 214.9 °C.

What is called melting point is the temperature, or range, at which the solid turns liquid.
